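The compound was tested at five concentrations on cells cultured in 96-well plates, with a 48-hour exposure period. TGI denotes the concentration required for complete inhibition of growth.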
What was measured:
Assay in all cases: DTP human tumour cell line panel, 48 h
OVCAR-8 ovarian = tested on: OVCAR-8 ovarian
SK-MEL-2 melanoma = tested on: SK-MEL-2 melanoma
OVCAR-4 ovarian = tested on: OVCAR-4 ovarian
OVCAR-5 ovarian = tested on: OVCAR-5 ovarian
SK-MEL-28 melanoma = tested on: SK-MEL-28 melanoma
A549 NSCLC = tested on: A549 NSCLC
LOX IMVI melanoma = tested on: LOX IMVI melanoma
HCT-15 colon = tested on: HCT-15 colon
HOP-62 NSCLC = tested on: HOP-62 NSCLC
SNB-75 CNS = tested on: SNB-75 CNS
SN12C renal = tested on: SN12C renal
PC-3 prostate = tested on: PC-3 prostate
CCRF-CEM leukemia = tested on: CCRF-CEM leukemia
A498 renal = tested on: A498 renal
MOLT-4 leukemia = tested on: MOLT-4 leukemia
M14 melanoma = tested on: M14 melanoma
OVCAR-3 ovarian = tested on: OVCAR-3 ovarian
DU-145 prostate = tested on: DU-145 prostate
NCI-H23 lung = tested on: NCI-H23 lung
HCT-116 colon = tested on: HCT-116 colon
SK-MEL-5 melanoma = tested on: SK-MEL-5 melanoma
MDA-MB-231 breast = tested on: MDA-MB-231 breast
MDA-N = tested on: MDA-N
COLO 205 colon = tested on: COLO 205 colon
SNB-19 CNS = tested on: SNB-19 CNS
SF-268 CNS = tested on: SF-268 CNS
786-0 renal = tested on: 786-0 renal
SR leukemia = tested on: SR leukemia
IGROV1 ovarian = tested on: IGROV1 ovarian
SF-295 CNS = tested on: SF-295 CNS
SW-620 colon = tested on: SW-620 colon
EKVX NSCLC = tested on: EKVX NSCLC
TK-10 renal = tested on: TK-10 renal
HT29 colon = tested on: HT29 colon
KM12 colon = tested on: KM12 colon
MALME-3M melanoma = tested on: MALME-3M melanoma
UACC-62 melanoma = tested on: UACC-62 melanoma
MDA-MB-435 = tested on: MDA-MB-435
CAKI-1 renal = tested on: CAKI-1 renal
HCC-2998 colon = tested on: HCC-2998 colon
UACC-257 melanoma = tested on: UACC-257 melanoma
HOP-92 NSCLC = tested on: HOP-92 NSCLC
RXF 393 renal = tested on: RXF 393 renal
HL-60(TB) leukemia = tested on: HL-60(TB) leukemia
ACHN renal = tested on: ACHN renal
T-47D breast = tested on: T-47D breast
SF-539 CNS = tested on: SF-539 CNS
NCI/ADR-RES ovarian = tested on: NCI/ADR-RES ovarian
NCI-H460 lung = tested on: NCI-H460 lung
HS 578T breast = tested on: HS 578T breast
NCI-H226 lung = tested on: NCI-H226 lung
MCF7 breast = tested on: MCF7 breast
SK-OV-3 ovarian = tested on: SK-OV-3 ovarian
UO-31 renal = tested on: UO-31 renal
K-562 leukemia = tested on: K-562 leukemia
NCI-H522 lung = tested on: NCI-H522 lung
RPMI-8226 leukemia = tested on: RPMI-8226 leukemia
U251 CNS = tested on: U251 CNS
BT-549 breast = tested on: BT-549 breast

C[C@@H]1OC2(O)[C@@H]3CCCN3C(=O)N(Cc3ccccc3)N2C1=O (some centres undefined)
TGI (OVCAR-8 ovarian): > 100 µM | TGI (SK-MEL-2 melanoma): > 100 µM | TGI (OVCAR-4 ovarian): > 100 µM | TGI (OVCAR-5 ovarian): > 100 µM | TGI (SK-MEL-28 melanoma): > 100 µM | TGI (A549 NSCLC): > 100 µM | TGI (LOX IMVI melanoma): > 100 µM | TGI (HCT-15 colon): > 100 µM | TGI (HOP-62 NSCLC): > 100 µM | TGI (SNB-75 CNS): 88.7 µM | TGI (SN12C renal): > 100 µM | TGI (PC-3 prostate): > 100 µM | TGI (CCRF-CEM leukemia): > 100 µM | TGI (A498 renal): > 100 µM | TGI (MOLT-4 leukemia): > 100 µM | TGI (M14 melanoma): > 100 µM | TGI (OVCAR-3 ovarian): > 100 µM | TGI (DU-145 prostate): > 100 µM | TGI (NCI-H23 lung): > 100 µM | TGI (HCT-116 colon): > 100 µM | TGI (SK-MEL-5 melanoma): > 100 µM | TGI (MDA-MB-231 breast): > 100 µM | TGI (MDA-N): > 100 µM | TGI (COLO 205 colon): > 100 µM | TGI (SNB-19 CNS): > 100 µM | TGI (SF-268 CNS): > 100 µM | TGI (786-0 renal): > 100 µM | TGI (SR leukemia): > 100 µM | TGI (IGROV1 ovarian): > 100 µM | TGI (SF-295 CNS): > 100 µM | TGI (SW-620 colon): > 100 µM | TGI (EKVX NSCLC): > 100 µM | TGI (TK-10 renal): > 100 µM | TGI (HT29 colon): > 100 µM | TGI (KM12 colon): > 100 µM | TGI (MALME-3M melanoma): > 100 µM | TGI (UACC-62 melanoma): > 100 µM | TGI (MDA-MB-435): > 100 µM | TGI (CAKI-1 renal): > 100 µM | TGI (HCC-2998 colon): > 100 µM | TGI (UACC-257 melanoma): > 100 µM | TGI (HOP-92 NSCLC): > 100 µM | TGI (RXF 393 renal): > 100 µM | TGI (HL-60(TB) leukemia): > 100 µM | TGI (ACHN renal): > 100 µM | TGI (T-47D breast): > 100 µM | TGI (SF-539 CNS): > 100 µM | TGI (NCI/ADR-RES ovarian): > 100 µM | TGI (NCI-H460 lung): > 100 µM | TGI (HS 578T breast): > 100 µM | TGI (NCI-H226 lung): > 100 µM | TGI (MCF7 breast): > 100 µM | TGI (SK-OV-3 ovarian): > 100 µM

C=CC1(c2ccc(Br)cc2)OCCCO1
TGI (OVCAR-8 ovarian): > 100 µM | TGI (SK-MEL-2 melanoma): > 100 µM | TGI (OVCAR-4 ovarian): > 100 µM | TGI (OVCAR-5 ovarian): > 100 µM | TGI (SK-MEL-28 melanoma): > 100 µM | TGI (A549 NSCLC): > 100 µM | TGI (LOX IMVI melanoma): > 100 µM | TGI (HCT-15 colon): > 100 µM | TGI (HOP-62 NSCLC): > 100 µM | TGI (SNB-75 CNS): > 100 µM | TGI (SN12C renal): > 100 µM | TGI (PC-3 prostate): > 100 µM | TGI (CCRF-CEM leukemia): > 100 µM | TGI (UO-31 renal): > 100 µM | TGI (MOLT-4 leukemia): > 100 µM | TGI (M14 melanoma): > 100 µM | TGI (OVCAR-3 ovarian): > 100 µM | TGI (DU-145 prostate): > 100 µM | TGI (NCI-H23 lung): > 100 µM | TGI (HCT-116 colon): > 100 µM | TGI (SK-MEL-5 melanoma): > 100 µM | TGI (MDA-MB-231 breast): > 100 µM | TGI (K-562 leukemia): > 100 µM | TGI (MDA-N): > 100 µM | TGI (COLO 205 colon): > 100 µM | TGI (SNB-19 CNS): > 100 µM | TGI (SF-268 CNS): > 100 µM | TGI (NCI-H522 lung): > 100 µM | TGI (786-0 renal): > 100 µM | TGI (SR leukemia): > 100 µM | TGI (IGROV1 ovarian): > 100 µM | TGI (SF-295 CNS): > 100 µM | TGI (SW-620 colon): > 100 µM | TGI (EKVX NSCLC): > 100 µM | TGI (TK-10 renal): > 100 µM | TGI (RPMI-8226 leukemia): > 100 µM | TGI (HT29 colon): > 100 µM | TGI (KM12 colon): > 100 µM | TGI (MALME-3M melanoma): > 100 µM | TGI (UACC-62 melanoma): > 100 µM | TGI (MDA-MB-435): > 100 µM | TGI (U251 CNS): > 100 µM | TGI (HCC-2998 colon): > 100 µM | TGI (UACC-257 melanoma): > 100 µM | TGI (HOP-92 NSCLC): > 100 µM | TGI (RXF 393 renal): > 100 µM | TGI (HL-60(TB) leukemia): > 100 µM | TGI (ACHN renal): > 100 µM | TGI (T-47D breast): > 100 µM | TGI (SF-539 CNS): > 100 µM | TGI (NCI/ADR-RES ovarian): > 100 µM | TGI (NCI-H460 lung): > 100 µM | TGI (HS 578T breast): > 100 µM | TGI (NCI-H226 lung): > 100 µM | TGI (MCF7 breast): > 100 µM | TGI (SK-OV-3 ovarian): > 100 µM

CC(C)N1CCCOC(c2ccc([N+](=O)[O-])cc2)O1 (centres undefined)
TGI (OVCAR-8 ovarian): > 100 µM | TGI (SK-MEL-2 melanoma): > 100 µM | TGI (OVCAR-4 ovarian): > 100 µM | TGI (OVCAR-5 ovarian): > 100 µM | TGI (SK-MEL-28 melanoma): > 100 µM | TGI (A549 NSCLC): > 100 µM | TGI (LOX IMVI melanoma): > 100 µM | TGI (HCT-15 colon): > 100 µM | TGI (HOP-62 NSCLC): > 100 µM | TGI (SNB-75 CNS): > 100 µM | TGI (SN12C renal): > 100 µM | TGI (PC-3 prostate): > 100 µM | TGI (CCRF-CEM leukemia): > 100 µM | TGI (UO-31 renal): > 100 µM | TGI (A498 renal): > 100 µM | TGI (MOLT-4 leukemia): > 100 µM | TGI (M14 melanoma): > 100 µM | TGI (OVCAR-3 ovarian): > 100 µM | TGI (DU-145 prostate): > 100 µM | TGI (NCI-H23 lung): > 100 µM | TGI (HCT-116 colon): > 100 µM | TGI (SK-MEL-5 melanoma): > 100 µM | TGI (MDA-MB-231 breast): > 100 µM | TGI (BT-549 breast): > 100 µM | TGI (K-562 leukemia): > 100 µM | TGI (MDA-N): > 100 µM | TGI (COLO 205 colon): > 100 µM | TGI (SF-268 CNS): > 100 µM | TGI (NCI-H522 lung): > 100 µM | TGI (786-0 renal): > 100 µM | TGI (SR leukemia): > 100 µM | TGI (IGROV1 ovarian): > 100 µM | TGI (SF-295 CNS): > 100 µM | TGI (SW-620 colon): > 100 µM | TGI (EKVX NSCLC): > 100 µM | TGI (TK-10 renal): > 100 µM | TGI (HT29 colon): > 100 µM | TGI (KM12 colon): > 100 µM | TGI (MALME-3M melanoma): > 100 µM | TGI (UACC-62 melanoma): > 100 µM | TGI (MDA-MB-435): > 100 µM | TGI (CAKI-1 renal): > 100 µM | TGI (U251 CNS): > 100 µM | TGI (HCC-2998 colon): > 100 µM | TGI (UACC-257 melanoma): > 100 µM | TGI (HOP-92 NSCLC): > 100 µM | TGI (RXF 393 renal): > 100 µM | TGI (ACHN renal): > 100 µM | TGI (T-47D breast): > 100 µM | TGI (SF-539 CNS): > 100 µM | TGI (NCI/ADR-RES ovarian): > 100 µM | TGI (NCI-H460 lung): > 100 µM | TGI (NCI-H226 lung): > 100 µM | TGI (MCF7 breast): > 100 µM | TGI (SK-OV-3 ovarian): > 100 µM

Reference: PubChem BioAssay (NCI)
